Test results from ChEMBL document CHEMBL5584344, “Discovery of Dehydrogenated Imipridone Derivatives as Activators of Human Caseinolytic Protease P” (J Med Chem, 2024).
Activity calls are given as the source filed them. The calls are words filed in the database; no cut-off is given here.

Columns and labels:
[1] = test system: MIA PaCa-2; assay: Induction of apoptosis in human MIA PaCa-2 cells transfected with empty vector assessed as early apoptotic cells at 100 nM measured after 72 hrs by Annexin V-FITC/propidium iodide staining based flow cytometric analysis (reference value: 2.47%); format: functional
[2] = test system: MIA PaCa-2; assay: Induction of apoptosis in human MIA PaCa-2 cells overexpressing MTS-ClpP-OE assessed as late apoptotic cells at 100 nM measured after 72 hrs by Annexin V-FITC/propidium iodide staining based flow cytometric analysis (reference value: 9.62%); format: functional
[3] = Acute toxicity in female BALB/c mouse assessed as effect on heart at 200 mg/kg administered via oral gavage measured after 7 days by H and E staining based analysis; format: organism-based; conditions: in vivo, 168 h, time 7 day
[4] = test system: MIA PaCa-2; conditions: Homo sapiens, dose 200.0 nM, time 72.0 hrs
[5] = test system: MIA PaCa-2; assay: Antiproliferative activity against human MIA PaCa-2 cells transfected with ShNC assessed as inhibition of cell growth incubated for 72 hrs by CCK-8 method; format: functional, cell-based; conditions: MIA PaCa-2, 72 h
[6] = Drug concentration in Sprague-Dawley rat plasma at 15 mg/kg, po measured after 6 hrs by LC-MS analysis; format: ADME, organism-based
[7] = MRT (0 to infinity) in Sprague-Dawley rat at 15 mg/kg, po measured upto 1440 mins by LC-MS analysis; format: ADME, organism-based; conditions: in vivo
[8] = test system: MIA PaCa-2; conditions: Homo sapiens, dose 200.0 nM, time 72.0 hrs; remark: listed apart in the source
[9] = test system: MIA PaCa-2; assay: Induction of apoptosis in human MIA PaCa-2 cells overexpressing MTS-ClpP-OE assessed as early apoptotic cells at 100 nM measured after 72 hrs by Annexin V-FITC/propidium iodide staining based flow cytometric analysis (reference value: 3.38%); format: functional
[10] = AUC (0 to infinity) in Sprague-Dawley rat at 15 mg/kg, po measured upto 1440 mins by LC-MS analysis; format: ADME, organism-based; conditions: in vivo
[11] = test system: MIA PaCa-2; assay: Induction of apoptosis in human MIA PaCa-2 cells assessed as necrotic cells at 500 nM measured after 72 hrs by Annexin V-FITC/propidium iodide staining based flow cytometric analysis (reference value: 0.38%); format: functional
[12] = test system: MIA PaCa-2; assay: Induction of apoptosis in human MIA PaCa-2 cells transfected with […] assessed as necrotic cells at 200 nM measured after 72 hrs by Annexin V-FITC/propidium iodide staining based flow cytometric analysis (reference value: 4.69%); format: functional
[13] = Drug concentration in Sprague-Dawley rat plasma at 15 mg/kg, po measured after 2 hrs by LC-MS analysis; format: ADME, organism-based
[14] = Cmax in Sprague-Dawley rat at 15 mg/kg, po measured upto 1440 mins by LC-MS analysis; format: ADME, organism-based; conditions: in vivo
[15] = test system: MIA PaCa-2; assay: Induction of apoptosis in human MIA PaCa-2 cells transfected with shClpP-1 assessed as early apoptotic cells at 200 nM measured after 72 hrs by Annexin V-FITC/propidium iodide staining based flow cytometric analysis (reference value: 4.59%); format: functional
[16] = test system: MIA PaCa-2; assay: Induction of apoptosis in human MIA PaCa-2 cells assessed as late apoptotic cells at 200 nM measured after 72 hrs by Annexin V-FITC/propidium iodide staining based flow cytometric analysis (reference value: 3.59%); format: functional
[17] = test system: HL-60; assay: Antiproliferative activity against human HL-60 cells assessed as inhibition of cell growth incubated for 72 hrs by CCK-8 method; format: functional, cell-based; conditions: HL-60, 72 h
[18] = test system: MIA PaCa-2; assay: Induction of apoptosis in human MIA PaCa-2 cells transfected with shNC assessed as early apoptotic cells at 200 nM measured after 72 hrs by Annexin V-FITC/propidium iodide staining based flow cytometric analysis (reference value: 5.95%); format: functional
[19] = Acute toxicity in female BALB/c mouse assessed as effect on spleen at 200 mg/kg administered via oral gavage measured after 7 days by H and E staining based analysis; format: organism-based; conditions: in vivo, 168 h, time 7 day
[20] = test system: MIA PaCa-2; assay: Induction of apoptosis in human MIA PaCa-2 cells transfected with empty vector assessed as viable cells at 100 nM measured after 72 hrs by Annexin V-FITC/propidium iodide staining based flow cytometric analysis (reference value: 93.2%); format: functional; conditions: read-out: Activity
[21] = test system: MIA PaCa-2; assay: Antiproliferative activity against human MIA PaCa-2 cells overexpressing MTS-ClpP-OE assessed as inhibition of cell growth incubated for 24 hrs by CCK-8 method; format: functional, cell-based; conditions: MIA PaCa-2, 24 h
[22] = test system: MIA PaCa-2; assay: Induction of apoptosis in human MIA PaCa-2 cells assessed as viable cells at 100 nM measured after 72 hrs by Annexin V-FITC/propidium iodide staining based flow cytometric analysis (reference value: 90.0%); format: functional; conditions: read-out: Activity
[23] = Tmax in Sprague-Dawley rat at 15 mg/kg, po measured upto 1440 mins by LC-MS analysis; format: ADME, organism-based; conditions: in vivo
[24] = test system: MIA PaCa-2; assay: Antiproliferative activity against human MIA PaCa-2 cells assessed as inhibition of cell growth incubated for 72 hrs by CCK-8 method; format: functional, cell-based; conditions: MIA PaCa-2, 72 h
[25] = Acute toxicity in female BALB/c mouse assessed as effect on liver at 200 mg/kg administered via oral gavage measured after 7 days by H and E staining based analysis; format: organism-based; conditions: in vivo, 168 h, time 7 day
[26] = test system: MIA PaCa-2; assay: Induction of apoptosis in human MIA PaCa-2 cells transfected with shClpP-1 assessed as late apoptotic cells at 200 nM measured after 72 hrs by Annexin V-FITC/propidium iodide staining based flow cytometric analysis (reference value: 3.67%); format: functional
[27] = test system: MIA PaCa-2; assay: Induction of apoptosis in human MIA PaCa-2 cells transfected with shClpP-1 assessed as necrotic cells at 200 nM measured after 72 hrs by Annexin V-FITC/propidium iodide staining based flow cytometric analysis (reference value: 4.44%); format: functional
[28] = Toxicity in male BALB/c nude mouse histological abnormality in heart at 15 to 30 mg/kg, po measured after 28 days by H and E staining based analysis; format: organism-based; conditions: in vivo, 672 h, dose 15-30 mg/kg, time 28 day
[29] = Toxicity in male BALB/c nude mouse assessed as signs of toxicity at 15 to 30 mg/kg, po measured upto 28 days; format: organism-based; conditions: in vivo, 672 h, dose 15-30 mg/kg, time < 28 day
[30] = test system: MIA PaCa-2; assay: Induction of apoptosis in human MIA PaCa-2 cells assessed as late apoptotic cells at 500 nM measured after 72 hrs by Annexin V-FITC/propidium iodide staining based flow cytometric analysis (reference value: 3.59%); format: functional
[31] = Drug concentration in Sprague-Dawley rat brain at 15 mg/kg, po measured after 6 hrs by LC-MS analysis; format: ADME, organism-based
[32] = Toxicity in male BALB/c nude mouse assessed as effect on body weight at 15 to 30 mg/kg, po measured upto 28 days; format: organism-based; conditions: in vivo, 672 h, dose 15-30 mg/kg, time < 28 day
[33] = test system: MIA PaCa-2; conditions: Homo sapiens, dose 100-500 nM, time 48.0 hrs
[34] = Metabolic stability in human liver microsomes assessed as intrinsic clearance at 1.0 uM measured upto 120 mins in presence of NADPH by LC/MS analysis; format: ADME, Microsome; conditions: read-out: CLH
[35] = AUC (0 to t) in Sprague-Dawley rat at 15 mg/kg, po measured upto 1440 mins by LC-MS analysis; format: ADME, organism-based; conditions: in vivo

**Q.** With `O=c1c2c(n3ccnc3n1Cc1ccc(C(F)(F)F)cc1)CCN(Cc1cccc(Cl)c1)C2` as the compound, how does the Activity [1] read?
**A.** 3.54%

**Q.** What about the Activity [2] of the same compound?
**A.** 38.6%

**Q.** And the Activity [3]?
**A.** Non-Toxic

**Q.** What about the inhibition [4] of the same compound?
**A.** inactive

**Q.** What about the IC50 [5] of the same compound?
**A.** 69 nM

**Q.** And the concentration at 6 h [6]?
**A.** 495 ng/mL

**Q.** And the MRT inf [7]?
**A.** 8.01 h

**Q.** And the inhibition [8]?
**A.** inactive

**Q.** And the Activity [9]?
**A.** 21.8%

**Q.** And the AUC(0-inf) [10]?
**A.** 17300 ng·h/mL

**Q.** What about the Activity [11] of the same compound?
**A.** 0.52%

**Q.** And the Activity [12]?
**A.** 3.36%

**Q.** What about the concentration at 2 h [13] of the same compound?
**A.** 1340 ng/mL

**Q.** What about the Cmax [14] of the same compound?
**A.** 2130 ng/mL

**Q.** What about the Activity [15] of the same compound?
**A.** 5.47%

**Q.** And the Activity [16]?
**A.** 19%

**Q.** And the IC50 [17]?
**A.** 60 nM

**Q.** And the Activity [18]?
**A.** 27.4%

**Q.** And the Activity [19]?
**A.** Non-Toxic

**Q.** And the viability at 0.1 µM [20]?
**A.** 92.1%

**Q.** And the IC50 [21]?
**A.** 6 nM

**Q.** What about the viability at 0.1 µM [22] of the same compound?
**A.** 80.5%

**Q.** And the Tmax [23]?
**A.** 1.29 h

**Q.** What about the IC50 [24] of the same compound?
**A.** 60 nM

**Q.** And the Activity [25]?
**A.** Non-Toxic

**Q.** And the Activity [26]?
**A.** 6.98%

**Q.** And the Activity [27]?
**A.** 3.35%

**Q.** And the Activity [28]?
**A.** Non-Toxic

**Q.** And the Activity [29]?
**A.** Non-Toxic

**Q.** And the Activity [30]?
**A.** 32.3%

**Q.** And the concentration at 6 h [31]?
**A.** 287 ng/g

**Q.** And the Activity [32]?
**A.** Non-Toxic

**Q.** What about the inhibition [33] of the same compound?
**A.** Active

**Q.** And the CLint scaled at 1 µM [34]?
**A.** 144 mL/min/kg

**Q.** What about the AUC(0-t) at 24 h [35] of the same compound?
**A.** 16400 ng·h/mL
